Our source for the IC50 and inhibition values is patent publication US20240131168A1, “NAPHTHALENE RING-CONTAINING COMPOUND, PHARMACEUTICAL COMPOSITION CONTAINING SAME, AND USE THEREOF” (JIANGSU YAHONG MEDITECH CO., LTD., priority 2021, published 2024).

Like-named read-outs stand apart in the source and are kept apart here.

As a reminder, the IC50 is the concentration at which inhibition is half-maximal. High values mean lower potency, low ones higher potency. Broadly, the inhibition is the relative decrease from the control value, in per cent.

Format in all cases: cell-based
One assay relates to MDA-MB-468. Description: CellTiter-Glo cell proliferation inhibition, MDA-MB-468. Conditions: Homo sapiens, MDA-MB-468 (CTG), starting concentration 10 μM; for inhibition at up to 10 µM: read-out: IH % max (maximum inhibition percentage). (ATP-based viability assays read luminescence as a measure of living cells.)
The test system of the next assay is MDA-MB-231. As to the kind of experiment: CellTiter-Glo cell proliferation inhibition, MDA-MB-231. Particulars: Homo sapiens, MDA-MB-231 (CTG), starting concentration 10 μM; for inhibition at up to 10 µM: read-out: IH % max (maximum inhibition percentage). The text has this:
(§1) 1. Cell line • (1) Breast cancer cell lines and their culture media: • MCF-7 (ATCC; Cat. No.: HTB-22), a Luminal A breast cancer cell; • TamR-MCF-7 (ATCC; Cat. No.: CRL-3435), a breast cancer cell; • MCF-7 ER^D538G: a Luminal A breast cancer cell obtained by constructing MCF-7 (ATCC; Cat. No.: HTB-22) using CRISPR-Cas9 gene editing technology; • MCF-7 ER^Y537S: a Luminal A breast cancer cell obtained by constructing MCF-7 (ATCC; Cat. No.: HTB-22) using CRISPR-Cas9 gene editing technology; • MDA-MB-231: (manufacturer: Nanjing CoBioer Biosciences Co., Ltd.), a triple-negative breast cancer cell; • MDA-MB-468: (manufacturer: Nanjing CoBioer Biosciences Co., Ltd.), a triple-negative breast cancer cell.
(§2) Herein, the culture medium of MCF-7, TamR-MCF-7, MCF-7 ER^D538G, and MCF-7 ER^Y537S was EMEM; • the culture medium of MDA-MB-231 and MDA-MB-468 was DMEM.
(§3) 2. Reagents • Culture medium EMEM (Gibco, 1964507) • Culture medium DMEM (Gibco, 12430-054) • Fetal bovine serum (Gibco, 10091148) • Penicillin-streptomycin double antibody (Gibco, S110JV) • DPBS (Gibco, 14190-144) • CellTiter-Glo® assay kit (Promega, G7573) • Trypsin (0.25%) (Gibco, 25200-056) • DMSO (Sigma, D2650)
(§4) 3. Instruments • Biosafety cabinet (AIRTECH, BSC-1300A II) • Automated cell counter (Life Technologies, countess II) • Multifunctional microplate reader (Biotek, H1FM) • Orbital shaker (Hangzhou Allsheng Instruments Co., Ltd., OS-100) • XLFIT 5.3 (Inforstack Shanghai Co., Ltd.)
(§5) For this test method, the following experiments were performed in a biosafety cabinet, with the specific steps as follows: • (1) Cells were inoculated in a 96-well plate. One day later, the previous culture medium was poured off, 5 mL of DPBS was added to wash the cells, and then DPBS was pipetted and discarded. An appropriate amount of trypsin was then added. The plate was digested in a 37° C., 5% CO2 cell incubator for about 2 to 5 minutes and then taken out. Anew corresponding culture medium was added, and pipetted up and down to resuspend the cells evenly. The cells were then counted using an automated cell counter. • (2) Each cell was inoculated in columns 1 to 11 of a 96-well plate (Corning, Cat. No.: 3610) at a density of 1,000 or 2,000 cells per well in 100 μL of culture medium, and 100 μL of the corresponding culture medium without cells was added to the wells in column 12. The plate was then placed in a 37° C., 5% CO2 incubator for 24 hours. • (3) The compound of the present disclosure and the control drug fulvestrant (Selleck; Cat. No.: S1191) were then 4-fold serially diluted to 10 dose points starting at 10 μM. 10 μL of the serially diluted compound was pipetted and added to 100 μL of cells in columns 1 to 10, and 10 μL of the corresponding culture medium containing 0.33 v % DMSO was added to both columns 11 and 12. The plate was incubated in a 37° C., 5% CO2 incubator for 6 days or 72 hours (Note: column 11 was used as a MAX well with cells but without compound; column 12 was used as a MIN well without cells […]). • (4) The cell viability detection reagent in the CellTiter-Glo® assay kit was then added to the 96-well plate at 50 μL per well according to the instructions, and shaken on an orbital shaker in the dark for 5 to 10 minutes. The cell viability was then measured using a multifunctional microplate reader. Finally, the inhibition of cell proliferation by the compound of the present disclosure was plotted by XLFIT software, and the IC50 value (half inhibitory concentration) and the IH % max (maximum inhibition percentage) of the compound of the present disclosure were calculated.
Compounds D64 to D69 were tested for MDA-MB-231 (CTG) and MDA-MB-468 (CTG) with an incubation time of 72 hours in the incubator.

For the next assay, the system named is MCF-7 ER^D538G. Description: CellTiter-Glo cell proliferation inhibition, MCF-7 ER^D538G. Particulars: Homo sapiens, MCF7, 144 h, MCF-7 ER^D538G (CTG), 6 days, starting concentration 10 μM; for inhibition at up to 10 µM: read-out: IH % max (maximum inhibition percentage). Put shortly: (§6)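 MCF-7, TamR-MCF-7, and CRISPR-edited MCF-7 ER D538G or Y537S cells were seeded at 1,000 or 2,000 cells/well in EMEM and cultured 24 h. They were then exposed to a 4-fold, 10-point series (top 10 µM before addition to wells) for 6 days or 72 h at 37 °C. CellTiter-Glo luminescence gave IC50 and maximum % inhibition.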

The subject of a further assay is MCF-7 ER^Y537S. Description: CellTiter-Glo cell proliferation inhibition, MCF-7 ER^Y537S. Conditions: Homo sapiens, MCF7, 144 h, MCF-7 ER^Y537S (CTG), 6 days, starting concentration 10 μM; for inhibition at up to 10 µM: read-out: IH % max (maximum inhibition percentage).
From the text: as §1, §2, §3, §4, §5

The next assay relates to MCF-7. As to the kind of experiment: CellTiter-Glo cell proliferation inhibition, MCF-7 (Effect Example 2). Conditions: Homo sapiens, MCF7, 144 h, MCF-7 (CTG), 6 days, starting concentration 10 μM; for inhibition at up to 10 µM: read-out: IH % max (maximum inhibition percentage). Put shortly: as §6
Another assay relates to TamR-MCF-7. Description: CellTiter-Glo cell proliferation inhibition, TamR-MCF-7. Conditions: 144 h, TamR-MCF-7 (CTG), 6 days, starting concentration 10 μM; for inhibition at up to 10 µM: read-out: IH % max (maximum inhibition percentage).
From the text: as §1, §2, §3, §4, §5

[1] abbreviates: incubation time 72 hours (D64 to D69).

Regarding `CS(=O)(=O)c1ccc(-c2ccc3cc(O)ccc3c2Oc2ccc(OCCN3CCN(c4ccc5c(c4)CN(C4CCC(=O)NC4=O)C5=O)CC3)cc2)cc1` (centres unmarked) [Compound D2, 3-(5-(4-(2-(4-((6-hydroxy-2-(4-(methylsulfonyl)phenyl)naphthalen-1-yl)oxy)phenoxy)ethyl)piperazin-1-yl)-1-oxoisoindolin-2-yl)piperidine-2,6-dione], the IC50 amounted to 5.8 nM with MDA-MB-468 (144 h, 6 days); 5.1 nM in the assay with MDA-MB-231 (144 h, 6 days); 88.4 nM with MCF-7 ER^D538G; 968 nM in the assay on MCF-7 ER^Y537S; 27.7 nM with MCF-7; 37.4 nM in the assay on TamR-MCF-7. Further, the inhibition at up to 10 µM in the assay on MDA-MB-468 (144 h, 6 days) was found to be 99%; in the assay with MDA-MB-231 (144 h, 6 days) it was 100%; in the assay with MCF-7 ER^D538G, 93%; with MCF-7 ER^Y537S it was 80%; with MCF-7, 100%; in the assay with TamR-MCF-7 it was 94%.

On to `CCN(CCNc1cccc2c1CN(C1CCC(=O)NC1=O)C2=O)CCOc1ccc(Oc2c(-c3ccc(S(C)(=O)=O)cc3)ccc3cc(O)ccc23)cc1` (centres unmarked) [Compound D17, 3-(4-((2-(ethyl(2-(4-((6-hydroxy-2-(4-(methylsulfonyl)phenyl)naphthalen-1-yl)oxy)phenoxy)ethyl)amino)ethyl)amino)-1-oxoisoindolin-2-yl)piperidine-2,6-dione], for which the inhibition at up to 10 µM was 87% in the assay on MDA-MB-231 (144 h, 6 days); 86% in the assay with MCF-7 ER^D538G; 77% with MCF-7 ER^Y537S; 58% in the assay with MCF-7; 39% in the assay with TamR-MCF-7.

Consider `CCN(CCOCCOc1cccc2c1C(=O)N(C1CCC(=O)NC1=O)C2=O)CCOc1ccc(Oc2c(-c3ccc(S(C)(=O)=O)cc3)ccc3cc(O)ccc23)cc1` (centres unmarked) [Compound D18, 2-(2,6-dioxopiperidin-3-yl)-4-(2-(2-(ethyl(2-(4-((6-hydroxy-2-(4-(methylsulfonyl)phenyl)naphthalen-1-yl)oxy)phenoxy)ethyl)amino)ethoxy)ethoxy)isoindoline-1,3-dione], for which the inhibition at up to 10 µM with MDA-MB-231 (144 h, 6 days) was 41%; with MCF-7 ER^D538G, 81%; with MCF-7 ER^Y537S, 67%; in the assay with MCF-7, 39%.

On to `C[C@@H]1CN(CCOCC(=O)Nc2cccc3c2CN(C2CCC(=O)NC2=O)C3=O)[C@@H](C)CN1CCOc1ccc(Oc2c(-c3ccc(S(C)(=O)=O)cc3)ccc3cc(O)ccc23)cc1` (stereo partly drawn) [Compound D25, N-(2-(2,6-dioxopiperidin-3-yl)-1-oxoisoindolin-4-yl)-2-(2-((2S,5R)-4-(2-(4-((6-hydroxy-2-(4-(methylsulfonyl)phenyl)naphthalen-1-yl)oxy)phenoxy)ethyl)-2,5-dimethylpiperazin-1-yl)ethoxy)acetamide], for which the inhibition at up to 10 µM in the assay with MDA-MB-468 (144 h, 6 days) was 96%; in the assay on MDA-MB-231 (144 h, 6 days) it was 53%; in the assay on MCF-7 ER^D538G it was 86%; with MCF-7 ER^Y537S, 59%; in the assay on MCF-7, 62%.

As for `CCN(CCOCCOCC(=O)N1CCN(c2cccc3c2CN(C2CCC(=O)NC2=O)C3=O)CC1)CCOc1ccc(Oc2c(-c3ccc(S(C)(=O)=O)cc3)ccc3cc(O)ccc23)cc1` (centres unmarked) [Compound D47], the inhibition at up to 10 µM in the assay with MDA-MB-468 (144 h, 6 days) came to 94%; in the assay on MDA-MB-231 (144 h, 6 days) it was 83%; with MCF-7 ER^D538G it was 89%; in the assay with MCF-7 ER^Y537S, 73%; in the assay with MCF-7, 31%. This compound showed an IC50 in the assay on MCF-7 ER^D538G of 830 nM.

On to `CN(C)C(=O)c1ccc(-c2ccc3ccccc3c2Oc2ccc(OC(=O)N3CCN(c4ccc5c(c4)CN(C4CCC(=O)NC4=O)C5=O)CC3)cc2)cc1` (centres unmarked) [Compound D67, 4-((2-(4-(dimethylcarbamoyl)phenyl)naphthalen-1-yl)oxy)phenyl 4-(2-(2,6-dioxopiperidin-3-yl)-1-oxoisoindolin-5-yl)piperazine-1-carboxylate], for which, in the assay with MDA-MB-468 (setting [1]), inhibition was half-maximal at 4.4 nM (IC50) and the inhibition at up to 10 µM turned out to be 83.6%. Moreover, in the assay on MDA-MB-231 (setting [1]), half-maximal inhibition (IC50) was put at 3.7 nM and the inhibition at up to 10 µM came out at 79.2%.

For `CN(C)C(=O)c1ccc(-c2ccc3ccccc3c2Oc2ccc(OCCN3CCN(c4ccc5c(c4)CN(C4CCC(=O)NC4=O)C5=O)CC3)cc2)cc1` (centres unmarked) [Compound D68, 4-(1-(4-(2-(4-(2-(2,6-dioxopiperidin-3-yl)-1-oxoisoindolin-5-yl)piperazin-1-yl)ethoxy)phenoxy)naphthalen-2-yl)-N,N-dimethylbenzamide], in the assay with MDA-MB-468 (setting [1]), the concentration for half-maximal inhibition (IC50) was 35.4 nM and the inhibition at up to 10 µM came out at 59.3%. Also, in the assay with MDA-MB-231 (setting [1]), the midpoint of inhibition, the IC50, lay at 44.2 nM and the inhibition at up to 10 µM is 71.5%.

Turning to `CNC(=O)c1ccc(-c2ccc3ccccc3c2Oc2ccc(OC(=O)N3CCN(c4ccc5c(c4)CN(C4CCC(=O)NC4=O)C5=O)CC3)cc2)cc1` (centres unmarked) [Compound D69, 4-((2-(4-(methylcarbamoyl)phenyl)naphthalen-1-yl)oxy)phenyl 4-(2-(2,6-dioxopiperidin-3-yl)-1-oxoisoindolin-5-yl)piperazine-1-carboxylate], the results for the half-inhibitory concentration (IC50) in the assay on MDA-MB-468 (setting [1]) and with MDA-MB-231 (setting [1]) were 2.7 nM and 2.2 nM, respectively. Further, the inhibition at up to 10 µM worked out at 92.8% in the assay with MDA-MB-468 (setting [1]) and 91.7% with MDA-MB-231 (setting [1]).
